{"source": "patent US20250041239A1", "about": "“ORALLY DISSOLVING ANTIMICROBIAL FILM COMPOSITIONS & METHODS OF THEIR USE” (ISHA Therapeutics LLC, priority 2022, published 2025)", "key": {"Candida albicans": {"system": "Candida albicans", "test": "Agar cup diffusion, zone of inhibition", "type": "cell-based", "text": "(§1) This Example provides a description of the antifungal activity of the active pharmaceutical ingredient amphotericin B in the orally dissolvable films disclosed herein compared to that of unmodified amphotericin B. Test organisms utilized in this experiment were Candida albicans and Candida tropicalis. Orally dissolvable amphotericin B-containing film(s) utilized in this Example were made according to the process described in Example 3.\n(§2) Two different species of infectious fungal genus Candida were cultured. A first mixture of sabouraud dextrose agar and broth was inoculated with Candida albicans and allowed to sit at room temperature for a period of two days under aerobic conditions. A second mixture of sabouraud dextrose agar and broth was inoculated with Candida tropicalis and allowed to sit at room temperature for 2 days under aerobic conditions. This established two cultures (one each) of the test organisms.\n(§3) To standardize the respective cultures, the optical density of each culture was adjusted using a 0.5 McFarland (turbidity) standard, approximating cultures to be approximately […] colony forming units per milliliter (cfu/mL).\n(§4) Each respective suspension was mixed until homogeneous to provide a final culture density of about 1×10^4 cfu/mL.\n(§5) Agar cup diffusion was used for testing antifungal activity of the test compositions. 0.1 mL of each respective sample of amphotericin B or amphotericin B-containing film was provided in a cylinder. Film concentration was 1.8 mg amphotericin B per film. Each test plate contained two samples (two cylinders). Tests were performed in triplicate (3 plates per test composition). Plates were incubated at room temperature for a period of 2 days as amphotericin B test compositions were allowed to diffuse into the agar layer containing test organism(s).\n(§6) Amphotericin B and amphotericin B-containing films were then evaluated for in vitro antifungal activity by measuring the zone of inhibition and microbial inhibition concentration (MIC) of each sample. Results are shown in FIGS. 2A, 2B, and 2C for the test organism Candida albicans and FIGS. 3A, 3B, and 3C for the test organism Candida tropicalis. Therein, amphotericin B samples are indicated as “A” and amphotericin B-containing films are indicated as “B”."}, "Candida tropicalis": {"system": "Candida tropicalis", "test": "Agar cup diffusion, zone of inhibition", "type": "cell-based", "text": "as §1, §2, §3, §4, §5, §6"}, "Candida spp.": {"system": "Candida spp.", "test": "Resazurin microtiter assay (REMA), MIC, Candida spp. tested", "type": "cell-based", "settings": "Candida albicans and Candida tropicalis; read-out: average MIC against Candida spp. tested", "method": "This Example provides a description of antifungal efficacy testing wherein minimum inhibitor concentration (MIC) of the active pharmaceutical ingredient amphotericin B in the orally dissolvable films disclosed herein compared to that of unmodified amphotericin B. The test organisms utilized in this experiment were Candida tropicalis and Candida albicans.\nA resazurin microtiter assay (REMA) assay was performed using orally dissolvable films prepared according to the process described in Example 3 and unmodified amphotericin B. Samples were run in triplicate as Sets 1-3 for each test material against each pathogen."}, "[1]": {"settings": "physiological pH; cited from earlier work"}, "[2]": {"settings": "0.1 mL sample, room temperature, 2 days"}}, "data": [{"smiles": "C[C@@H]1[C@H](O)[C@@H](C)/C=C/C=C/C=C/C=C/C=C/C=C/C=C/[C@H](O[C@@H]2O[C@H](C)[C@@H](O)[C@H](N)[C@@H]2O)C[C@@H]2O[C@](O)(C[C@@H](O)C[C@@H](O)[C@H](O)CC[C@@H](O)C[C@@H](O)CC(=O)O[C@H]1C)C[C@H](O)[C@H]2C(=O)O", "note": "[AmpB, (1R,3S,5R,6R,9R,11R,15S,16R, 17R, 18S, 19E,21E,23E, 25E, 27E,29E,31E,33R,35S,36R,37S)-33-[(2R,3S,4S,5S,6R)-4-amino-3,5-di hydroxy-6-methyloxan-2-yl]oxy-1,3,5,6,9,11,17,37-octahydroxy-15,16,18-trimethyl-13-oxo-14,39-dioxabicyclo[33.3.1]nonatriaconta-19,21,23, 25, 27,29,31-heptaene-36-carboxylic acid]", "values": [{"measurement": "Zone of Inhibition, Set 1", "setting": "Candida albicans; [2]", "result": 19, "unit": "mm"}, {"measurement": "Zone of Inhibition, Set 2", "setting": "Candida albicans; [2]", "result": 19, "unit": "mm"}, {"measurement": "Zone of Inhibition, Set 3", "setting": "Candida albicans; [2]", "result": 20, "unit": "mm"}, {"measurement": "Effective Zone of Inhibition", "setting": "Candida albicans; mean of Sets 1-3", "result": "19.33 ± 0.57", "unit": "mm"}, {"measurement": "Zone of Inhibition, Set 1", "setting": "Candida tropicalis; [2]", "result": 20, "unit": "mm"}, {"measurement": "Zone of Inhibition, Set 2", "setting": "Candida tropicalis; [2]", "result": 22, "unit": "mm"}, {"measurement": "Zone of Inhibition, Set 3", "setting": "Candida tropicalis; [2]", "result": 22, "unit": "mm"}, {"measurement": "Effective Zone of Inhibition", "setting": "Candida tropicalis; mean of Sets 1-3", "result": "21.33 ± 1.15", "unit": "mm"}, {"measurement": "MIC", "setting": "Candida spp.", "result": "~1.1", "unit": "mg/L"}, {"measurement": "solubility in saline", "setting": "[1]", "result": "insoluble"}]}]}
